Test results as given in the NIST ThermoML archive (doi:10.1016/j.fluid.2015.07.030).
Numbers after ± are expanded uncertainties.

Columns and labels:
[1] = Liquid; for mass density: 95.99 kPa, Vibrating tube method; for vapor or sublimation pressure: Ebulliometric method (Recirculating still)
[2] = refractive index (other wavelength) (dimensionless); details: 95.99 kPa, Liquid, Wavelength=404.7 nm, Standard Abbe refractometry
[3] = xn = mol fraction of the nth substance listed; details: 293.15 K; 95.99 kPa; Liquid; Vibrating tube method; x1 = 1
[4] = refractive index (other wavelength) (dimensionless); xn = mol fraction of the nth substance listed; details: 95.99 kPa, Liquid, Standard Abbe refractometry, x1 = 1

OCCOCCOCCO [triethylene glycol]
Details	mass density, [1] [kg/m3]	refractive index, [2]	vapor or sublimation pressure, [1] [kPa]
293.15 K	1123.12 ± 0.25	1.45619 ± 0.00033 [middle of 9 runs]	–
298.15 K	1119.01 ± 0.25	1.45447 ± 0.00033 [middle of 9 runs]	–
303.15 K	1114.79 ± 0.25	1.45273 ± 0.00033 [middle of 9 runs]	–
308.15 K	1110.81 ± 0.25	1.45106 ± 0.00033 [middle of 9 runs]	–
313.15 K	1106.7 ± 0.25	1.44927 ± 0.00033 [middle of 9 runs]	–
535.65 K	–	–	53.33 ± 0.48
543.87 K	–	–	66.66 ± 0.67
551.33 K	–	–	79.99 ± 0.8
559.01 K	–	–	95.99 ± 1

O [water]
Details	refractive index, 293.15 K	refractive index, 298.15 K	refractive index, 303.15 K	refractive index, 308.15 K	refractive index, 313.15 K	vapor or sublimation pressure, 356.16 K [kPa]	vapor or sublimation pressure, 361.89 K [kPa]	vapor or sublimation pressure, 366.73 K [kPa]	vapor or sublimation pressure, 371.71 K [kPa]
[1]	–	–	–	–	–	53.33 ± 0.37	66.66 ± 0.5	79.99 ± 0.6	95.99 ± 0.77
[2]	1.33325 ± 0.00031 [middle of 9 runs]	1.33262 ± 0.00031 [middle of 9 runs]	1.33203 ± 0.00031 [middle of 9 runs]	1.33136 ± 0.00031 [middle of 9 runs]	1.33066 ± 0.00031 [middle of 9 runs]	–	–	–	–

O [water] + OCCOCCOCCO
Details	mass density [kg/m3]
[3]	998.27 ± 0.2

refractive index, [4]
Details	Wavelength=404.7 nm	Wavelength=435.8 nm	Wavelength=486.1 nm	Wavelength=546.1 nm	Wavelength=587.6 nm	Wavelength=589.3 nm	Wavelength=632.8 nm	Wavelength=644 nm	Wavelength=706.5 nm
293.15 K	1.34287 ± 0.00031	1.34033 ± 0.00031	1.33728 ± 0.00031	–	1.33325 ± 0.00031	1.332 ± 0.00031	1.33194 ± 0.00031	1.33164 ± 0.00031	1.33018 ± 0.00031
298.15 K	1.34223 ± 0.00031	1.33969 ± 0.00031	1.33606 ± 0.00031	1.33405 ± 0.00033	1.33262 ± 0.00031	1.33257 ± 0.00031	1.33132 ± 0.00031	1.33103 ± 0.00031	1.32956 ± 0.00031
303.15 K	1.3416 ± 0.00031	1.33908 ± 0.00031	1.33606 ± 0.00031	1.33344 ± 0.00031	1.33203 ± 0.00031	1.33198 ± 0.00031	1.33074 ± 0.00031	1.33045 ± 0.00031	1.32898 ± 0.00031
308.15 K	1.34092 ± 0.00031	1.33843 ± 0.00031	1.33538 ± 0.00031	1.33278 ± 0.00031	1.33136 ± 0.00031	1.33131 ± 0.00031	1.33007 ± 0.00031	1.32979 ± 0.00031	1.32834 ± 0.00031
313.15 K	1.3402 ± 0.00031	1.3377 ± 0.00031	1.33466 ± 0.00031	1.33207 ± 0.00031	1.33066 ± 0.00031	1.33061 ± 0.00031	1.32937 ± 0.00031	1.32908 ± 0.00031	1.32764 ± 0.00031
